Laboratory results reported in patent US9163066B2, “Antimicrobial lytic peptides” (priority 2010, dated 2015).
Like-named read-outs stand apart in the source and are kept apart here. Residues, ends and D or L forms follow the SMILES beside them. No end group written: not given here.

Key:
Type in all cases: cell-based
[1] = system: red blood cells (erythrocytes); test: Hemolytic activity of the peptides (hemoglobin release, absorbance at 412 nm)
Experimental: Hemolysis as defined herein is an in vitro assay where the compounds tendency to lyse red blood cells is determined. Presumably, the compounds that are less hemolytic will be less toxic in vivo. Increasing amounts of compound are added to solutions containing red blood cells and left for a specified time and then lysis is determined spectrophotometrically by measuring hemoglobin release.
A small volume of a suspension of erythrocytes (about 100 million) is kept on ice with a specific amount of lytic peptide. The cells are then placed in a 37° C. water bath for 10 min, vortexed and centrifuged at 1000 g for 2 min. The supernatant was removed and the amount of hemoglobin that was released was determined by the samples' absorbance at 412 nm. Control values without added peptide were subtracted from the absorbance readings.
The numerical difference between the value of the mean of hemolysis and the mean of the activity is a useful way to determine those peptides having the most desired activity.

bacteria = test: Antibacterial activity of the peptides, broth microdilution MIC, mean activity (Table II); details: overnight incubation (18 to 24 h)
Experimental: (§1) Minimum Inhibitory Concentration or MIC for the purpose of this invention is the lowest concentration of an antimicrobial that will inhibit the visible growth of a microorganism after overnight incubation. Minimum inhibitory concentrations are important in diagnostic laboratories to confirm resistance of microorganisms to an antimicrobial agent and also to monitor the activity of new antimicrobial agents. A MIC is generally regarded as the most basic laboratory measurement of the activity of an antimicrobial agent against an organism. MBC is defined as the lowest concentration of an antimicrobial agent needed to kill 99.9% of the initial organism inoculum. Presently, specific guidelines for interpretation are not available; therefore, a clinician knowledgeable in both bactericidal testing and infectious diseases should be available to interpret the results.
(§2) MICs were determined by the broth microdilution method described by the National Committee for Clinical Laboratory Standards (17). Serial twofold dilutions of each peptide solution were prepared (final volume, […]) in microtiter trays with appropriate medium. Each dilution series included control wells containing bacteria without peptide. A total of […] of the adjusted inoculum (100,000 organisms) was added to each well, and then the trays were incubated at
(§3) in ambient air overnight (18 to 24 h). The MIC of each peptide for each isolate was read as the lowest concentration of peptide that inhibited visible growth of the organism.
The above in vitro tests and analyses were conducted on a set of designed peptides of the present invention; and, for comparative purposes, naturally derived molecules.

Sinorhizobium = test: MIC by broth microdilution; design: unit not given here
Experimental: as §1, §2, §3

Xanthomonas = test: MIC by broth microdilution; design: unit not given here
Experimental: as §1, §2, §3

agrobacterium = test: MIC by broth microdilution; design: unit not given here
Experimental: as §1, §2, §3

[2] = system: agrobacterium, Sinorhizobium, Xanthomonas; test: MIC by broth microdilution, mean over B1-B3; details: mean of MIC for B1, B2, B3
Experimental: as §1, §2, §3

Fusarium moniliforme = test: Antimicrobial activity against pathogens (MIC80 / MBC100); details: concentration of TP necessary to limit growth by 80%
Source text: (§4) A comparison of antimicrobial activity for these two naturally occurring peptides against various pathogens (combined fungal and bacterial) is summarized below

Xanthomonas campestris = test: as above; details: concentration of TP necessary to limit growth by 80%
Source text: as §4

Aspergillus flavus = test: as above; details: concentration of TP necessary to limit growth by 80%
Source text: as §4

[3] = erythrocytes, 37° C. for 10 min

Molecule	Mean of Hemolysis [1] [µM]	Mean Activity (bacteria) [µM]	other results
CC[C@H](C)[C@H](NC(=O)[C@H](CCCCN)NC(=O)[C@H](C)NC(=O)[C@H](CCCNC(=N)N)NC(=O)[C@H](CC(C)C)NC(=O)[C@H](CCCNC(=N)N)NC(=O)[C@@H](NC(=O)[C@H](CCCCN)NC(=O)[C@@H](NC(=O)[C@H](CCCCN)NC(=O)[C@H](C)NC(=O)[C@H](CCCNC(=N)N)NC(=O)[C@H](CC(C)C)NC(=O)[C@H](CCCCN)NC(=O)[C@@H](N)Cc1ccccc1)C(C)C)[C@@H](C)CC)C(=O)N[C@@H](CCCCN)C(=O)N[C@@H](CC(C)C)C(=O)O [AGM 155] (H-FKLRAKVKIRLRAKIKL-OH; N-terminus and C-terminus assumed)	1.6		
CC[C@H](C)[C@H](NC(=O)[C@H](CCCCN)NC(=O)[C@@H](NC(=O)[C@H](CCCNC(=N)N)NC(=O)[C@H](CC(C)C)NC(=O)[C@H](CCCNC(=N)N)NC(=O)[C@H](C)NC(=O)[C@H](CCCCN)NC(=O)[C@@H](NC(=O)[C@H](CCCCN)NC(=O)[C@@H](N)Cc1ccccc1)[C@@H](C)CC)C(C)C)C(=O)N[C@@H](CCCCN)C(=O)N[C@@H](C)C(=O)N[C@@H](CCCNC(=N)N)C(=O)N[C@@H](CC(C)C)C(=O)N[C@@H](CCCCN)C(=O)N[C@@H](CC(C)C)C(=O)O [AGM 176] (H-FKIKARLRVKIKARLKL-OH; N-terminus and C-terminus assumed)	1.3		
CC[C@H](C)[C@H](NC(=O)[C@H](CCCNC(=N)N)NC(=O)[C@H](CC(C)C)NC(=O)[C@H](CCCCN)NC(=O)[C@@H](NC(=O)[C@H](CCCCN)NC(=O)[C@H](C)NC(=O)[C@H](CCCNC(=N)N)NC(=O)[C@@H](NC(=O)[C@H](CCCNC(=N)N)NC(=O)[C@@H](N)Cc1ccccc1)[C@@H](C)CC)C(C)C)C(=O)N[C@@H](CCCNC(=N)N)C(=O)N[C@@H](C)C(=O)N[C@@H](CCCCN)C(=O)N[C@H](C(=O)N[C@@H](CCCNC(=N)N)C(=O)N[C@@H](CC(C)C)C(=O)O)C(C)C [AGM 178] (H-FRIRAKVKLRIRAKVRL-OH; N-terminus and C-terminus assumed)	1.2		
CC[C@H](C)[C@H](NC(=O)[C@H](CCCNC(=N)N)NC(=O)[C@H](C)NC(=O)[C@H](CCCCN)NC(=O)[C@@H](NC(=O)[C@H](CCCCN)NC(=O)[C@H](CC(C)C)NC(=O)[C@H](CCCNC(=N)N)NC(=O)[C@@H](NC(=O)[C@H](CCCNC(=N)N)NC(=O)[C@H](C)NC(=O)[C@H](CCCCN)NC(=O)[C@@H](NC(=O)[C@H](CCCNC(=N)N)NC(=O)[C@@H](N)Cc1ccccc1)C(C)C)[C@@H](C)CC)C(C)C)C(=O)N[C@@H](CCCNC(=N)N)C(=O)N[C@@H](CC(C)C)C(=O)O [AGM 179] (H-FRVKARIRLKVKARIRL-OH; N-terminus and C-terminus assumed)	2.1		
CC[C@H](C)[C@H](NC(=O)[C@H](CCCNC(=N)N)NC(=O)[C@@H]1CCCN1C(=O)[C@H](Cc1cnc[nH]1)NC(=O)[C@@H]1CCCN1C(=O)[C@@H]1CCCN1C(=O)[C@H](CCCNC(=N)N)NC(=O)[C@@H]1CCCN1C(=O)[C@H](CCC(N)=O)NC(=O)[C@@H]1CCCN1C(=O)[C@@H](NC(=O)[C@H](Cc1ccc(O)cc1)NC(=O)[C@@H](NC(=O)[C@@H]1CCCN1C(=O)[C@H](CCCNC(=N)N)NC(=O)[C@H](CC(N)=O)NC(=O)[C@H](CC(N)=O)NC(=O)CN)C(C)C)[C@@H](C)CC)C(=O)O [Apidaecin IA] (H-GNNRPVYIPQPRPPHPRI-OH)	1.6	20.67	
CC[C@H](C)[C@H](NC(=O)CNC(=O)[C@H](CC(N)=O)NC(=O)[C@H](CCCNC(=N)N)NC(=O)[C@@H](NC(=O)[C@H](CC(N)=O)NC(=O)[C@H](CCCNC(=N)N)NC(=O)CNC(=O)[C@H](CCSC)NC(=O)[C@H](CCCCN)NC(=O)[C@H](CCC(=O)O)NC(=O)[C@@H](NC(=O)[C@H](CCCCN)NC(=O)[C@H](CCCCN)NC(=O)[C@H](Cc1ccccc1)NC(=O)[C@@H](NC(=O)[C@H](CCCCN)NC(=O)[C@H](Cc1c[nH]c2ccccc12)NC(=O)[C@@H](N)CCCCN)C(C)C)[C@@H](C)CC)[C@@H](C)CC)C(=O)N[C@H](C(=O)N[C@@H](CCCCN)C(=O)N[C@@H](C)C(=O)NCC(=O)N1CCC[C@H]1C(=O)N[C@@H](C)C(=O)N[C@H](C(=O)N[C@@H](C)C(=O)N[C@H](C(=O)N[C@@H](CC(C)C)C(=O)NCC(=O)N[C@@H](CCC(=O)O)C(=O)N[C@@H](C)C(=O)N[C@@H](CCCCN)C(=O)N[C@@H](C)C(=O)N[C@@H](CC(C)C)C(N)=O)C(C)C)[C@@H](C)CC)C(C)C [Cecropin B] (H-KWKVFKKIEKMGRNIRNGIVKAGPAIAVLGEAKAL-NH2)	1.2		
CC[C@H](C)[C@H](NC(=O)[C@@H]1CCCN1C(=O)[C@H](CCCNC(=N)N)NC(=O)[C@@H]1CCCN1C(=O)[C@H](Cc1cnc[nH]1)NC(=O)[C@H](CO)NC(=O)[C@@H](NC(=O)[C@@H]1CCCN1C(=O)[C@H](CCCNC(=N)N)NC(=O)[C@@H]1CCCN1C(=O)[C@H](CO)NC(=O)[C@H](Cc1ccc(O)cc1)NC(=O)[C@@H]1CCCN1C(=O)[C@H](CCCNC(=N)N)NC(=O)[C@@H]1CCCN1C(=O)[C@H](CCCCN)NC(=O)CN)[C@@H](C)O)C(=O)N[C@@H](CCCNC(=N)N)C(=O)N[C@H](C(=O)O)C(C)C [Drosocin] (H-GKPRPYSPRPTSHPRPIRV-OH)	1.6	21	
CC[C@H](C)[C@H](NC(=O)CN)C(=O)NCC(=O)N[C@@H](C)C(=O)N[C@H](C(=O)N[C@@H](CC(C)C)C(=O)N[C@@H](CCCCN)C(=O)N[C@H](C(=O)N[C@@H](CC(C)C)C(=O)N[C@H](C(=O)N[C@H](C(=O)NCC(=O)N[C@@H](CC(C)C)C(=O)N1CCC[C@H]1C(=O)N[C@@H](C)C(=O)N[C@@H](CC(C)C)C(=O)N[C@H](C(=O)N[C@@H](CO)C(=O)N[C@@H](Cc1c[nH]c2ccccc12)C(=O)N[C@H](C(=O)N[C@@H](CCCCN)C(=O)N[C@@H](CCCNC(=N)N)C(=O)N[C@@H](CCCCN)C(=O)N[C@@H](CCCNC(=N)N)C(=O)N[C@@H](CCC(N)=O)C(=O)N[C@@H](CCC(N)=O)C(N)=O)[C@@H](C)CC)[C@@H](C)CC)[C@@H](C)O)[C@@H](C)O)C(C)C)C(C)C [Melittin]		1.33	Mean of Hemolysis [1, 3]: 100.8 µM
Cecropin A		3.83	
Histatin-5	1.8	30	
Indolicidin	2	5.33	
KAFKKAFKKFKKACFKGLCAKKFKKFAKKFAK [AGM 183]			MIC for B2 (Sinorhizobium): 0.3; MIC for B3 (Xanthomonas): 1; MIC for B1 (agrobacterium): 3; Mean [2]: 1.44
KARLKFCFKGLCIKIKVR [AGM 181]			MIC for B2 (Sinorhizobium): 0.3; MIC for B3 (Xanthomonas): 1; MIC for B1 (agrobacterium): 1; Mean [2]: 0.77
KFAKKFKKFAKKFCFKGLCAFKKAFKKFKKAF [AGM 184]			MIC for B2 (Sinorhizobium): 0.3; MIC for B3 (Xanthomonas): 1; MIC for B1 (agrobacterium): 1; Mean [2]: 0.77
KIKARLCLGKFCIKARLK [AGM 182]			MIC for B2 (Sinorhizobium): 0.3; MIC for B3 (Xanthomonas): 1; MIC for B1 (agrobacterium): 1; Mean [2]: 0.77
KWCFRVCYRGICYRRCR [TP, defensin-like peptide found in the hemolymph of the horseshoe crab]		0.3	TP MIC80 (Fusarium moniliforme): 21 µM; TP MIC80 (Xanthomonas campestris): 0.77 µM; TP MIC80 (Aspergillus flavus): 34 µM; Mean of Hemolysis [1, 3]: 3 µM
LL-37	5.1	1	
Magainin I: Magainins: 23 amino acids in length, derived from the African Clawed Frog (GIGKFLHSAGKFGKAFVGEIMKS; Magainin-1; UniProt P11006 37-59, looked up)	1.3	30	
Magainin II	1.5	30	
Pyrrhocoricin (D): naturally derived molecule tested for comparative purposes (VDKGSYLPRPTPPRPIYNRN; not fully specified; UniProt P37362 1-20, looked up)		23.33	Mean of Hemolysis [1, 3]: 1.9 µM
Pyrrhocoricin (H): naturally derived molecule tested for comparative purposes (VDKGSYLPRPTPPRPIYNRN; UniProt P37362 1-20, looked up)		26.67	Mean of Hemolysis [1, 3]: 1.6 µM
